Tests used:
wheat powdery mildew [1] = experiment: Protective activity test against wheat powdery mildew; assay type: in vivo; details: for control %: protective, assessed 7 days later
wheat powdery mildew [2] = experiment: Curative activity test against wheat powdery mildew; assay type: in vivo; details: for control %: curative, sprayed 4 days after inoculation
Rice sheath blight = experiment: In vitro fungicidal activity test, PDA mycelium growth inhibition method; assay type: cell-based
Cucumber wilt blight = experiment: as above; assay type: cell-based; details: 27° C., 3-4 days, read-out: Effect of mycelium growth inhibition (%)
wheat powdery mildew [3] = experiment: Fungicidal activity tests against wheat powdery mildew (wheat seedlings sprayed at 200 mg/L, greenhouse); assay type: in vivo; details: 200 mg/L spray, inoculated 24 hours later, visual assessment 7 days after treatment
Method: Compounds for test were weighed quantitatively and dissolved into acetone of suitable volume (acetone's volume is 10% of the whole solution's volume), then diluted by water containing 0.1% (volume percent, the same below) Tween 80, into 200 mg/L. By turntable crop sprayer, wheat seedlings with 1 leaf and 1 core were treated under the spray pressure of 1.5 kg/cm^2 and the spray volume of about 1000 L/hm^2, then naturally dry, 24 hours later wheat powdery mildew spore was inoculated, and then continue being incubated in greenhouse. Assessment of efficacy was carried out by visual observation 7 days later after treatment.

Cucumber anthracnose = experiment: In vitro fungicidal activity test, PDA mycelium growth inhibition method; assay type: cell-based
[4] = test system: corn curvalaria leaf spot; experiment: as above; assay type: cell-based
Wheat root rot = experiment: as above; assay type: cell-based
Method: (§1) PDA mycelium growth inhibition method was used for this test. Compound 13 (content 95%) was weighed quantitatively and dissolved in acetone of suitable volume (acetone's volume is 10% of the whole solution's volume), then diluted with water containing 0.1% Tween 80 into the solution of the medicament at the needed concentration, and then diluted with the same water into a series of concentration for tests. The medicament for test diluted by water was added quantitatively into the heating full-nutrition culture medium, to form culture medium including the medicament at a series of concentration, and then poured into 9-cm culture dish, after cooling, inoculated with the pathogen cake (diameter 0.5 cm) for test which was incubated in vitro, each treatment was repeated tree times. After treatment, placed in growth chamber in 27° C., 3-4 days later, observe the growth of the blank contrast fungi colony, the diameter of fungi colony was investigated and measured, and corrected inhibition ratio was calculated.

Cucumber scab = experiment: as above; assay type: cell-based
Method: as §1

Rice blast = experiment: microbe, parasite or virus in culture; assay type: cell-based
[5] = test system: Wheat Fusarium Head Blight; experiment: microbe, parasite or virus in culture; assay type: cell-based; details: read-out: Effect of mycelium growth inhibition (%)
Rice false smut = experiment: In vitro fungicidal activity test, PDA mycelium growth inhibition method; assay type: cell-based
[6] = 0.1 mg/L, 27° C., 3-4 days, read-out: Effect of mycelium growth inhibition (%)
[7] = 1 mg/L, 27° C., 3-4 days, read-out: Effect of mycelium growth inhibition (%)
[8] = 10 mg/L, 27° C., 3-4 days, read-out: Effect of mycelium growth inhibition (%)
[9] = Pyricularia oryzae, read-out: Effect of mycelium growth inhibition (%)

CO/N=C(/C(=O)OC)c1ccccc1COc1ccccc1C [Kresoxim-methyl, reference compound]
control % (wheat powdery mildew [1]; concentration 0.78 mg/L): 15%
control % (wheat powdery mildew [1]; concentration 1.56 mg/L): 40%
control % (wheat powdery mildew [1]; concentration 3.125 mg/L): 70%
control % (wheat powdery mildew [1]; concentration 6.25 mg/L): 98%
control % (wheat powdery mildew [1]; concentration 12.5 mg/L): 100%
control % (wheat powdery mildew [2]; concentration 0.78 mg/L): 0%
control % (wheat powdery mildew [2]; concentration 1.56 mg/L): 10%
control % (wheat powdery mildew [2]; concentration 3.125 mg/L): 15%
control % (wheat powdery mildew [2]; concentration 6.25 mg/L): 75%
control % (wheat powdery mildew [2]; concentration 12.5 mg/L): 100%

COC(=O)N(OC)c1ccccc1COc1nc(Cl)c(Cl)cc1Cl [Compound 13, Methyl N-methoxy-N-(2-((3,5,6-trichloropyridin-2-yl)oxymethyl)phenyl)carbamate]
inhibition at 0.1 µg/mL (Rice sheath blight; Rice sheath blight, 0.1 mg/L, 27° C., 3-4 days, read-out: Effect of mycelium growth inhibition (%)): 42.7%
inhibition at 1 µg/mL (Rice sheath blight; Rice sheath blight, 1 mg/L, 27° C., 3-4 days, read-out: Effect of mycelium growth inhibition (%)): 59.2%
inhibition at 10 µg/mL (Rice sheath blight; Rice sheath blight, 10 mg/L, 27° C., 3-4 days, read-out: Effect of mycelium growth inhibition (%)): 78.6%
fungicidal activity (in words) (Rice sheath blight; rice sheath blight, in vitro): outstanding
inhibition at 0.1 µg/mL (Cucumber wilt blight; 0.1 mg/L): 27.1%
inhibition at 1 µg/mL (Cucumber wilt blight; 1 mg/L): 33.6%
inhibition at 10 µg/mL (Cucumber wilt blight; 10 mg/L): 51.4%
control % (wheat powdery mildew [3]): 100%
inhibition at 0.1 µg/mL (Cucumber anthracnose; Cucumber anthracnose, 0.1 mg/L, 27° C., 3-4 days, read-out: Effect of mycelium growth inhibition (%)): 42.8%
inhibition at 1 µg/mL (Cucumber anthracnose; Cucumber anthracnose, 1 mg/L, 27° C., 3-4 days, read-out: Effect of mycelium growth inhibition (%)): 62.8%
inhibition at 10 µg/mL (Cucumber anthracnose; Cucumber anthracnose, 10 mg/L, 27° C., 3-4 days, read-out: Effect of mycelium growth inhibition (%)): 72.4%
fungicidal activity (in words) (Cucumber anthracnose; cucumber anthracnose, in vitro): outstanding
inhibition at 0.1 µg/mL [4, 6]: 55.4%
inhibition at 1 µg/mL [4, 7]: 56.2%
inhibition at 10 µg/mL [4, 8]: 70.2%
fungicidal activity (in words) ([4]; in vitro): outstanding
inhibition at 0.1 µg/mL (Wheat root rot; Wheat root rot, 0.1 mg/L, 27° C., 3-4 days, read-out: Effect of mycelium growth inhibition (%)): 32.6%
inhibition at 1 µg/mL (Wheat root rot; Wheat root rot, 1 mg/L, 27° C., 3-4 days, read-out: Effect of mycelium growth inhibition (%)): 46.3%
inhibition at 10 µg/mL (Wheat root rot; Wheat root rot, 10 mg/L, 27° C., 3-4 days, read-out: Effect of mycelium growth inhibition (%)): 61.1%
fungicidal activity (in words) (Wheat root rot; wheat root rot, in vitro): outstanding
inhibition at 0.1 µg/mL (Cucumber scab; [6]): 28.7%
inhibition at 1 µg/mL (Cucumber scab; [7]): 50%
inhibition at 10 µg/mL (Cucumber scab; [8]): 65%
fungicidal activity (in words) (Cucumber scab; in vitro): outstanding
melting point: 94 to 95 °C
control % (wheat powdery mildew [1]; concentration 0.78 mg/L): 100%
control % (wheat powdery mildew [1]; concentration 1.56 mg/L): 100%
control % (wheat powdery mildew [1]; concentration 3.125 mg/L): 100%
control % (wheat powdery mildew [1]; concentration 6.25 mg/L): 100%
control % (wheat powdery mildew [1]; concentration 12.5 mg/L): 100%
preventative activity compared with the standard chemical (in words) (wheat powdery mildew [1]; versus Kresoxim-methyl, 0.78-12.5 mg/L): obviously better than the one of the standard chemical
inhibition at 0.1 µg/mL (Rice blast; [9]): 36.6%
inhibition at 1 µg/mL (Rice blast; [9]): 62.6%
inhibition at 10 µg/mL (Rice blast; [9]): 77.2%
fungicidal activity (in words) (Rice blast; rice blast, in vitro): outstanding
inhibition at 0.1 µg/mL [5]: 20.3%
inhibition at 1 µg/mL [5]: 21.1%
inhibition at 10 µg/mL [5]: 42.9%
inhibition at 0.1 µg/mL (Rice false smut; Rice false smut, 0.1 mg/L, 27° C., 3-4 days, read-out: Effect of mycelium growth inhibition (%)): 19.5%
inhibition at 1 µg/mL (Rice false smut; Rice false smut, 1 mg/L, 27° C., 3-4 days, read-out: Effect of mycelium growth inhibition (%)): 42.8%
inhibition at 10 µg/mL (Rice false smut; Rice false smut, 10 mg/L, 27° C., 3-4 days, read-out: Effect of mycelium growth inhibition (%)): 79.2%
fungicidal activity (in words) (Rice false smut; rice false smut, in vitro): outstanding
control % (wheat powdery mildew [2]; concentration 0.78 mg/L): 10%
control % (wheat powdery mildew [2]; concentration 1.56 mg/L): 35%
control % (wheat powdery mildew [2]; concentration 3.125 mg/L): 70%
control % (wheat powdery mildew [2]; concentration 6.25 mg/L): 100%
control % (wheat powdery mildew [2]; concentration 12.5 mg/L): 100%
curative activity compared with the standard chemical (in words) (wheat powdery mildew [2]; versus kresoxim-methyl): better than the one of standard chemical

COC(=O)N(OC)c1ccccc1CNc1c(Cl)c(F)nc(F)c1Cl [Compound 49, Methyl N-(2-((3,5-dichloro-2,6-difluoropyridin-4-yl)aminomethyl)phenyl)-N-methoxycarbamate]
control % (wheat powdery mildew [3]): 85%
melting point: 82 to 83 °C
